Reference: patent US20110117008A1, “USE OF AVICINS TO DELIVER THERAPEUTIC AND DIAGNOSTIC AGENTS” (Research Development Foundation, priority 2007, published 2011)
Entries after “also recorded” stand apart in the source; their conditions may differ. Where a name gives a salt, the structure may show the parent alone. Each block holds one compound with its values, some of them ahead of it. *1 amine or outer side, *2 acyl side, *3 side chain or, on linkers, in order; H or OH if unused. Where a SMILES comes first, the peptide text is derived from it. Bridges are numbered along the chain shown (N, C = ends). Roman numbers before positions name the chains, in order. [ ]: non-standard residue; d: D form. Actinocin(9to1) = Cc1c2oc3c(C)ccc(C(=O)[*:1])c3nc-2c(C(=O)[*:2])c(N)c1=O; NMeV = CN[C@H](C(=O)O)C(C)C; Sar = CNCC(=O)O

How the values were obtained:
[1] = cited from earlier work
[2] = adults with previously untreated chronic myelogenous leukemia; cited from earlier work
[3] = tested on: full thickness porcine skin; assay: Tritiated water transport through full thickness porcine skin, side by side diffusion cells, scintillation counting; type: in vitro ADME, pig; settings: tritiated water in PBS, F094 10 mg/ml, Avicin D and Avicin G 1 mg/ml, 24 hours
Procedure: In addition, it was desired to access if the known enhancer N-Methyl Pyrrolidinone (NMP) might modulate skin's water permeability when codelivered. […] Each donor compartment solution was loaded with 5 μCi/ml (1 μg/ml) of tritiated (^3H) water. Receiver compartments were sampled at 0.5, 1, 2, 3, 6, 12, 18 and 24 hours.
Likewise, Avicin D and Avicin G solutions contained 1 mg/ml of Avicin D and G respectively, along with PBS and tritiated water (1 μg/ml, 5 μCi/ml).
(§1) Upon receipt, concentrated stock solutions were made in DMSO.

[4] = cited from earlier work; remark: listed apart in the source
[5] = tested on: full thickness porcine skin; assay: 3H-estradiol transport and percutaneous absorption, full thickness porcine skin, side by side diffusion cells; type: in vitro ADME, pig; settings: 3H-estradiol in PBS; F094 5-20 mg/ml, Avicin D and Avicin G 1 mg/ml; 24 hours
Procedure: Each solution was loaded with 5 μCi/ml of 3H-Estradiol (Amersham TRK 322). Receiver compartments were sampled at 0.5 1, 2, 3, 6, 12, 18 and 24 hours.
Likewise, Avicin D and Avicin G solutions contained 1 mg/ml of Avicin D and G respectively, along with PBS and 3H-estradiol (5 μCi/ml).
as §1

full thickness pig skin = assay: Water soluble anesthetic transport in full thickness pig skin, HPLC quantification; settings: for Maximum % Enhancement over control: highest enhancement of the anesthetic's permeability with F094
Excerpt: (§2) HPLC was used to quantify delivered mass, and to calculate permabilities in lag times. Error bar represents mean+/−standard deviation.
as §2

[6] = Partition coefficient of anesthetics between octanol and water, HPLC; type: physicochemical; settings: for Partition coefficient (octanol/water): as listed in Table 4; for Partition Coefficient: octanol/water

Structure (SMILES): CC[C@]1(O)C[C@@H]2CN(CCc3c([nH]c4ccccc34)[C@@](C(=O)OC)(c3cc4c(cc3OC)N(C)[C@H]3[C@@](O)(C(=O)OC)[C@H](OC(C)=O)[C@]5(CC)C=CCN6CC[C@]43[C@@H]65)C2)C1 [vinblastine, Vinblastine]
plasma half-life after distribution (first) ([1]; after intravenous injection): approximately 1 hours
plasma half-life after distribution (second) ([1]; after intravenous injection): ~72000 s
oral / gastrointestinal absorption ([1]; in vivo, po): Unpredictable absorption

Structure (SMILES): CS(=O)(=O)OCCCCOS(C)(=O)=O [Busulfan, 1,4-butanediol dimethanesulfonate]
hematologic remission with regression or stabilization of organomegaly [2]: Approximately 90%

Structure (SMILES): C=C[C@](C)(O)CC/C=C(\C)C(=O)O[C@H]1[C@H](O)[C@@H](O)[C@H](O[C@@](C)(C=C)CC/C=C(\CO)C(=O)O[C@H]2C[C@]3(C(=O)O[C@@H]4O[C@H](CO)[C@@H](O)[C@H](O)[C@H]4O[C@@H]4O[C@@H](C)[C@H](O[C@@H]5O[C@@H](CO)[C@H](O)[C@H]5O)[C@@H](O[C@@H]5O[C@H](CO)[C@@H](O)[C@H](O)[C@H]5O)[C@H]4O)[C@H](O)C[C@]4(C)C(=CC[C@@H]5[C@@]6(C)CC[C@H](O[C@@H]7O[C@H](CO[C@@H]8O[C@H](C)[C@H](O)[C@H](O)[C@H]8O[C@@H]8OC[C@@H](O)[C@H](O)[C@H]8O)[C@@H](O)[C@H](O)[C@H]7NC(C)=O)C(C)(C)[C@@H]6CC[C@]54C)[C@@H]3CC2(C)C)O[C@@H]1C [Avicin G]
effect on water transport / water permeability of skin [3]: inhibits water transport in comparison to Avicin D; also recorded: differentially enhance water permeability

Structure (SMILES): COc1cccc2c1C(=O)c1c(O)c3c(c(O)c1C2=O)C[C@@](O)(C(C)=O)C[C@@H]3O[C@H]1C[C@H](N)[C@H](O)[C@H](C)O1 [Daunorubicin]
oral / gastrointestinal absorption ([1]; in vivo, po): Oral absorption is poor

Structure (SMILES): CC[C@]1(O)C[C@H]2CN(CCc3c([nH]c4ccccc34)[C@@](C(=O)OC)(c3cc4c(cc3OC)N(C=O)[C@H]3[C@@](O)(C(=O)OC)[C@H](OC(C)=O)[C@]5(CC)C=CCN6CC[C@]43[C@@H]65)C2)C1 [vincristine, Vincristine]
oral / gastrointestinal absorption ([1]; in vivo, po): Unpredictable absorption

Structure (SMILES): N.N.[Cl][Pt][Cl] [Cisplatin]
oral / gastrointestinal absorption ([1]; in vivo, po): not absorbed orally

Structure (SMILES): O=NN(CCCl)C(=O)NC1CCCCC1 [Lomustine, 1-(2-chloro-ethyl)-3-cyclohexyl-1 nitrosourea]
radioactivity excreted in the form of degradation products ([1]; in vivo, po): about half

Structure (SMILES): CC[C@@]1(O)C(=O)OCc2c1cc1n(c2=O)Cc2cc3ccccc3nc2-1 [camptothecin, Camptothecin]
solubility in water [4]: poor water-solubility
storage stability ([4]; stored at 2-8° C. in a dry, airtight, light-resistant environment): stable for at least two years

Structure (SMILES): Cc1c2oc3c(C)ccc(C(=O)N[C@@H]4C(=O)N[C@H](C(C)C)C(=O)N5CCC[C@H]5C(=O)N(C)CC(=O)N(C)[C@@H](C(C)C)C(=O)O[C@@H]4C)c3nc-2c(C(=O)N[C@@H]2C(=O)N[C@H](C(C)C)C(=O)N3CCC[C@H]3C(=O)N(C)CC(=O)N(C)[C@@H](C(C)C)C(=O)O[C@@H]2C)c(N)c1=O [Actinomycin D] (I: T[dV]P[Sar][NMeV] / II: T[dV]P[Sar][NMeV]; ester I:1-I:C, II:1-II:C; linker I:N-II:N via Actinocin(9to1))
share of the dose excreted intact into the bile ([1]; in vivo): Half of the dose

Structure (SMILES): C=C[C@](C)(O)CC/C=C(\CO)C(=O)O[C@H]1[C@H](O)[C@@H](O)[C@H](O[C@@](C)(C=C)CC/C=C(\CO)C(=O)O[C@H]2C[C@]3(C(=O)O[C@@H]4O[C@H](CO)[C@@H](O)[C@H](O)[C@H]4O[C@@H]4O[C@@H](C)[C@H](O[C@@H]5O[C@@H](CO)[C@H](O)[C@H]5O)[C@@H](O[C@@H]5O[C@H](CO)[C@@H](O)[C@H](O)[C@H]5O)[C@H]4O)[C@H](O)C[C@]4(C)C(=CC[C@@H]5[C@@]6(C)CC[C@H](O[C@@H]7O[C@H](CO[C@@H]8O[C@H](C)[C@H](O)[C@H](O)[C@H]8O[C@@H]8OC[C@@H](O)[C@H](O)[C@H]8O)[C@@H](O)[C@H](O)[C@H]7NC(C)=O)C(C)(C)[C@@H]6CC[C@]54C)[C@@H]3CC2(C)C)O[C@@H]1C [Avicin D]
effect on water transport / water permeability of skin [3]: potent enhancer of water and estradiol permeability through the skin; also recorded: increases water permeability of skin as compared to Avicin G
effect on water transport / water permeability of skin ([3]; listed as avicin D): differentially enhance water permeability
effect on estradiol transport / estradiol permeability of skin [5]: potent enhancer of water and estradiol permeability through the skin; also recorded: increase estradiol permeability of skin as compared to Avicin G

Permeability (full thickness pig skin): 0.46 ± 0.11 × 10^−3 (cm/hr)
Partition coefficient (octanol/water) [6]: 0.43
Partition Coefficient ([6]; 0 mg/ml F094): 0.47 ± 0.03
Partition Coefficient ([6]; 1 mg/ml F094): 0.43 ± 0.02
Partition Coefficient ([6]; 5 mg/ml F094): 0.51 ± 0.02
Partition Coefficient ([6]; 10 mg/ml F094): 0.50 ± 0.01
Structure (SMILES): CCCNC(C)C(=O)Nc1ccccc1C (stereo not drawn) [Prilocaine HCl]
Maximum % Enhancement over control (full thickness pig skin): 228%

Structure (SMILES): COc1cccc2c1C(=O)c1c(O)c3c(c(O)c1C2=O)C[C@@](O)(C(=O)CO)C[C@@H]3O[C@H]1C[C@H](N)[C@H](O)[C@H](C)O1 [Doxorubicin, 5,12-Naphthacenedione, (8s-cis)-10-[(3-amino-2,3,6-trideoxy-a-L-lyxo-hexopyranosyl)oxy]-7,8,9,10-tetrahydro-6,8,11-trihydroxy-8-(hydroxyacetyl)-1-methoxy-hydrochloride]
oral / gastrointestinal absorption ([1]; in vivo, po): absorbed poorly

Permeability (full thickness pig skin): 0.71 ± 0.05 × 10^−3 (cm/hr)
Lag time (full thickness pig skin; female, pig): 10.8 ± 1.1 h
Partition coefficient (octanol/water) [6]: 1.7
Partition Coefficient ([6]; 0 mg/ml F094): 3.3 ± 0.4
Partition Coefficient ([6]; 1 mg/ml F094): 3.6 ± 0.5
Partition Coefficient ([6]; 5 mg/ml F094): 4.1 ± 0.3
Partition Coefficient ([6]; 10 mg/ml F094): 3.5 ± 0.8
Structure (SMILES): CCCCN1CCCCC1C(=O)Nc1c(C)cccc1C (stereo not drawn) [Bupivacaine HCl]
Maximum % Enhancement over control (full thickness pig skin): 347%

Structure (SMILES): O=C(O)CCCc1ccc(N(CCCl)CCCl)cc1 [Chlorambucil, 4-[bis(2-chlorethyl)amino]benzenebutanoic acid]
oral / gastrointestinal absorption ([1]; in vivo, po): rapidly and completely absorbed from the gastrointestinal tract
terminal half-life ([1]; plasma): ~1.5 h
